This is an account of results in publication PMC9617675 (Antiviral Research, 2022).

Several values for one entry are separate records, joined by “and”; a condition that tells them apart may be missing. Equal values may be shown once. Read-outs that look alike come from different tables or passages of the source.

One may read the EC50 as the concentration that produces a half-maximal response. Broadly, the EC90 is the concentration at which the effect reaches the 90% level.

For series [1], the system named is SARS-CoV-2 B.1.617.2 (Delta). The class given is cell-based. The note with it: Vero E6 cells, mean ± SD.
For series [2], the system named is SARS-CoV-2 B.1.351 (Beta). The class given is cell-based. Conditions: Vero E6 cells, mean ± SD.
The subject of series [3] is SARS-CoV-2 B.1.1.7 (Alpha). The class given is cell-based. Conditions: Vero E6 cells, mean ± SD.
The nature of a further series: in vitro. Conditions: African green monkey.
For series [4] the following is noted: healthy human; ref NCT05197179 and NCT04766931; cited from earlier work.
The test system of a further series is SARS-CoV-2. Kind of series: Time of addition assay in Vero E6 cells. The class given is cell-based. Conditions: 2 μM, 10 μM, 1 μM + P-gp inhibitor; entry, post entry and full-time.
For series [5], the system named is SARS-CoV-2 wild-type (2019-nCoV-WIV04). The class given is cell-based.
Series [6] concerns SARS-CoV-2 (2019-nCoV-WIV04). The class given is cell-based. Conditions: Vero E6.

In the case of `CC(C)(C)[C@H](NC(=O)C(F)(F)F)C(=O)N1C[C@H]2[C@@H]([C@H]1C(=O)N[C@H](C#N)C[C@@H]1CCNC1=O)C2(C)C` [PF-07321332, reference compound], the EC50 in series [1] amounted to 780 ± 210 nM; in [2] it was 490 ± 60 nM; in [3], 820 ± 20 nM. For the same compound, the figures for the EC90 in [1], in [2] and in series [3] were 1890 ± 100 nM, 1740 ± 260 nM and 1540 ± 20 nM, respectively.
In the series “in vitro”, `CCN(CC)CCCC(C)Nc1ccnc2cc(Cl)ccc12` (stereo not drawn) [Chloroquine phosphate] came in with a CC50 above 100000 nM.
As for `O=C[C@H](C[C@@H]1CCNC1=O)NC(=O)[C@H](CC1CCCCC1)NC(=O)c1cc2ccccc2[nH]1` [FB2001], the CC50 with Vero E6 cells (CCK8, 24 h) is 243000 nM and 274000 nM; with Vero E6 cells (CCK8, with P-gp inhibitor CP-100356), 142000 nM. For the same compound, the EC50 was 270 ± 50 nM in series [1]; 280 ± 110 nM in series [2]; 420 ± 80 nM in series [5]; 390 ± 10 nM in series [3]; 1100 nM in series [6] (10% human serum); 1910 nM in series [6] (20% human serum). Also, the EC50 was 2570 nM in [6] (30% human serum), 2150 nM in [6] (40% human serum) and 2400 nM in series [6] (50% human serum). The EC90 in [1] turned out to be 810 ± 200 nM; in [2] it was 570 ± 210 nM; in [5] it was 1360 ± 1730 nM; in series [3], 750 ± 10 nM. For the same compound, the safety and tolerability result in series [4] is “good safety and tolerability”. Also, in the series with SARS-CoV-2, the “antiviral activity in time of addition assay” value is “potent antiviral activities under all conditions”.
